Assay results from patent US9567345B2, “Pharmaceutically active pyrazolo-triazine derivatives” (LEAD DISCOVERY CENTER GMBH, priority 2012, dated 2017).

Key:
Format in all cases: biochemical
[1] = molecular target: T1, CDK2/CycA (Homo sapiens, UniProt P24941); experiment: CDK2 Enzymatic Activity Assay (Lance Kinase Activity Assay, FRET); conditions: Table 5B, class symbols per IC50 [nM] ranges of b581; read-out: CDK2: Selectivity of CDK7 inhibition over CDK2 inhibition
T1 construct: purchased Proqinase
Summary of the method: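 LANCE TR-FRET assay: CDK2/CycA phosphorylated ULight-MBP peptide in HEPES 50 mM pH 7.5 buffer with MgCl2, EGTA, DTT and Tween-20 for 1 h at room temperature. Eu-anti-phospho-MBP antibody with EDTA was then added for 1 h before reading. IC50 was fitted from 8-point, 1:3 sigmoidal dose-response curves.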

[2] = molecular target: CDK7/CycH/Mat1 (Homo sapiens, UniProt P50613); experiment: CDK7 Enzymatic Activity Assay (Lance Kinase Activity Assay, FRET); conditions: CDK7/CycH/Mat1, 25 μM ATP final; class ranges; read-out: CDK7: IC50 [nM] for CDK7 inhibition
Summary of the method: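 Ulight-MBP peptide phosphorylation by CDK7/CycH/Mat1 in HEPES 50 mM pH 7.5, MgCl2, EGTA, DTT, Tween-20; 1 h at room temperature, then EDTA stop with Eu-anti-phospho-MBP antibody for 1 h and TR-FRET read. Compounds in 8-point 1:3 DMSO series; IC50 from sigmoidal dose-response fit.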

[3] = molecular target: CDK9/Cyclin T1 (Homo sapiens, UniProt P50750); experiment: CDK9 Enzymatic Activity Assay (Lance Kinase Activity Assay, FRET); conditions: Table 5B, class symbols per IC50 [nM] ranges of b581; read-out: CDK9: Selectivity of CDK7 inhibition over CDK9 inhibition
Summary of the method: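 CDK9/cyclin T1 phosphorylation of a ULight-MBP peptide was run for 1 h at room temperature in pH 7.5 HEPES buffer with MgCl2, EGTA, DTT and Tween-20. It was followed by 1 h with Eu-anti-phospho-MBP antibody (4 nM) in EDTA detection buffer. TR-FRET loss gave IC50 from 8-point, 1:3 sigmoidal dose-response curves.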

Chain of CDK7/CycH/Mat1 (P50613 whole entry): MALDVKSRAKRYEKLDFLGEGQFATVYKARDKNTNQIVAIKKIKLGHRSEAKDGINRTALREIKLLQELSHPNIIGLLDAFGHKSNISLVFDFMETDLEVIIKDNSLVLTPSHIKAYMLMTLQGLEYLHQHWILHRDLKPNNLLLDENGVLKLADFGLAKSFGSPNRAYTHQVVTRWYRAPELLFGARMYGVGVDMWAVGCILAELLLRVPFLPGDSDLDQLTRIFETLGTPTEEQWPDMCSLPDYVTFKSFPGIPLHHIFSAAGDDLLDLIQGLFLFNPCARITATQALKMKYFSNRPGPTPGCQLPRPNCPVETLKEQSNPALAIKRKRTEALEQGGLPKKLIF
Chain of CDK9/Cyclin T1 (P50750 whole entry): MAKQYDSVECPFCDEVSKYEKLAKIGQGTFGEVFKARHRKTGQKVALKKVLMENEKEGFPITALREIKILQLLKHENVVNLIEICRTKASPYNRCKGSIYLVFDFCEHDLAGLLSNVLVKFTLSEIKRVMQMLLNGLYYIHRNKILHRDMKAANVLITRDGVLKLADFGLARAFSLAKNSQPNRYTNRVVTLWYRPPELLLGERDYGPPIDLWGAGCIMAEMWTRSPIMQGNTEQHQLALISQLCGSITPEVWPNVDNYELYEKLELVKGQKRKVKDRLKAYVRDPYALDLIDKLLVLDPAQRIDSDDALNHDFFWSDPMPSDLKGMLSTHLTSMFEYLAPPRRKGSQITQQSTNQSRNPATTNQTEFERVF
Chain of CDK9/Cyclin T1 (O60563 whole entry partner): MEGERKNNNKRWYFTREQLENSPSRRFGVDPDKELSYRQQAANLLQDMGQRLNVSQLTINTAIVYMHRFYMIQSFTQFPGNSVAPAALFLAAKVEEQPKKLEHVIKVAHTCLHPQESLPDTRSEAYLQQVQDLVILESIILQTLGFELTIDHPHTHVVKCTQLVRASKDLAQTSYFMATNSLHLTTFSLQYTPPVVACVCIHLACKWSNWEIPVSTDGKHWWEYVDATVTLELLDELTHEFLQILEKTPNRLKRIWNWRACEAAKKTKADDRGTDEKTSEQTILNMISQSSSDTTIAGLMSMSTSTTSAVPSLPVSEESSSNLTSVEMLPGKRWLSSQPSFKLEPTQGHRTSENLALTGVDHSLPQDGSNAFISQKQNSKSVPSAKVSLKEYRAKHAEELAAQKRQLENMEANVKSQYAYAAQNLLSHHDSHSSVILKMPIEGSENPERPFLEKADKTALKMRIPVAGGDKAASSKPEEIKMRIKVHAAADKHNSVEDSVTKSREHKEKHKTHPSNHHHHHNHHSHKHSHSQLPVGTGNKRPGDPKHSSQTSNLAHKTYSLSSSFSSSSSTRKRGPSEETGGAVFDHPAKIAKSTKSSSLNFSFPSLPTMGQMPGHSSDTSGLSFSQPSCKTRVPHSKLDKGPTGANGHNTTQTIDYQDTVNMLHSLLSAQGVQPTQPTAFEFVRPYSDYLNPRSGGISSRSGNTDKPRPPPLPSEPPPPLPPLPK

Structure (SMILES) | IC50 [1] | IC50 [2] | IC50 [3]
CC(C)c1cnn2c(NCc3ccccc3N3CCCC3=O)nc(N3CCC4(CCCN4)CC3)nc12 [(VIII-38), 1-(2-(((8-isopropyl-2-(1,8-diazaspiro[4.5]decan-8-yl)pyrazolo[1,5-a][1,3,5]triazin-4-yl)amino)methyl)phenyl)pyrrolidin-2-one] | > 2500 nM | < 5 nM | > 2500 nM
COC(=O)C(CN)Nc1nc(NCc2ccccc2-n2cccn2)n2ncc(C(C)C)c2n1 (stereo not drawn) [(VIII-055), methyl 2-((4-((2-(1H-pyrazol-1-yl)benzyl)amino)-8-isopropylpyrazolo[1,5-a][1,3,5]triazin-2-yl)amino)-3-aminopropanoate] | > 2500 nM | > 25 nM | > 2500 nM
CC(C)c1cnn2c(NCc3ccccc3-n3cccn3)nc(OC3COC4(CCNCC4)C3)nc12 (stereo not drawn) [(VII-121), 2-(1-oxa-8-azaspiro[4.5]decan-3-yloxy)-N-(2-(1H-pyrazol-1-yl)benzyl)-8-isopropylpyrazolo[1,5-a][1,3,5]triazin-4-amine] | > 2500 nM | < 5 nM | > 2500 nM
CC(C)c1cnn2c(NCc3ccccc3-n3cccn3)nc(CN(C)CCN3CCCC3)nc12 [(XXX-3), N-(2-(1H-pyrazol-1-yl)benzyl)-8-isopropyl-2-((methyl(2-(pyrrolidin-1-yl)ethyl)amino)methyl)pyrazolo[1,5-a][1,3,5]triazin-4-amine] | > 2500 nM | > 25 nM | > 2500 nM
CC(C)c1cnn2c(NCc3ccccc3-n3cccn3)nc(C(=O)NCC3CCNCC3)nc12 [(XII-1), 4-((2-(1H-pyrazol-1-yl)benzyl)amino)-8-isopropyl-N-(piperidin-4-ylmethyl)pyrazolo[1,5-a][1,3,5]triazine-2-carboxamide] | > 2500 nM | < 5 nM | > 2500 nM
CC(C)c1cnn2c(NCc3ccccc3-n3cccn3)nc(OC3COC4(CCNCC4)C3)nc12 (stereo not drawn) [(VII-05), 2-(1-oxa-8-azaspiro[4.5]decan-3-yloxy)-N-(2-(1H-pyrazol-1-yl)benzyl)-8-isopropylpyrazolo[1,5-a][1,3,5]triazin-4-amine] | > 2500 nM | < 5 nM | > 2500 nM

Continued, values first:

IC50 [1] | IC50 [2] | IC50 [3] | Structure (SMILES)
500 to 2500 nM | 10 to 25 nM | 500 to 2500 nM | CC(=O)Oc1ccccc1CNc1nc(O[C@@H]2CCCNC2)nc2c(C(C)C)cnn12 [(VII-145), (R)-2-(((8-isopropyl-2-(piperidin-3-yloxy)pyrazolo[1,5-a][1,3,5]triazin-4-yl)amino)methyl)phenyl acetate]
< 50 nM | < 5 nM | < 50 nM | CC(C)c1cnn2c(NCc3cccc4c3cnn4C)nc(O[C@@H]3CCCNC3)nc12 [(VII-33), (R)-8-isopropyl-N-((1-methyl-1H-indazol-4-yl)methyl)-2-(piperidin-3-yloxy)pyrazolo[1,5-a][1,3,5]triazin-4-amine]
50 to 500 nM | < 5 nM | > 2500 nM | CC(C)c1cnn2c(NCc3ccccc3-n3cccn3)nc(NC3CCCNC3)nc12 (stereo not drawn) [(VIII-01), N4-(2-(1H-pyrazol-1-yl)benzyl)-8-isopropyl-N2-(piperidin-3-yl)pyrazolo[1,5-a][1,3,5]triazine-2,4-diamine]
50 to 500 nM | < 5 nM | 50 to 500 nM | CC(C)c1cnn2c(NCc3cccc4cccnc34)nc(O[C@@H]3CCCNC3)nc12 [(VII-35), (R)-8-isopropyl-2-(piperidin-3-yloxy)-N-(quinolin-8-ylmethyl)pyrazolo[1,5-a][1,3,5]triazin-4-amine]
< 50 nM | < 5 nM | 500 to 2500 nM | CC(C)c1cnn2c(NCc3ccccc3-n3cncn3)nc(O[C@@H]3CCNC3)nc12 [(VII-21), (R)-N-(2-(1H-1,2,4-triazol-1-yl)benzyl)-8-isopropyl-2-(pyrrolidin-3-yloxy)pyrazolo[1,5-a][1,3,5]triazin-4-amine]
500 to 2500 nM | 5 to 10 nM | > 2500 nM | CC(C)c1cnn2c(NCc3ccccc3-n3cccn3)nc(N3CCCC4(CCNCC4)C3)nc12 [(VIII-21), N-(2-(1H-pyrazol-1-yl)benzyl)-8-isopropyl-2-(2,9-diazaspiro[5.5]undecan-2-yl)pyrazolo[1,5-a][1,3,5]triazin-4-amine]
50 to 500 nM | < 5 nM | > 2500 nM | CC(C)c1cnn2c(NCc3ccccc3-n3cccn3)nc(OC3CCNCC3)nc12 [(VII-01), N-(2-(1H-pyrazol-1-yl)benzyl)-8-isopropyl-2-(piperidin-4-yloxy) pyrazolo[1,5-a][1,3,5]triazin-4-amine]
50 to 500 nM | 5 to 10 nM | > 2500 nM | CC(C)c1cnn2c(NCc3ccccc3-n3cccn3)nc(OC3C=CCNC3)nc12 (stereo not drawn) [(VII-120), N-(2-(1H-pyrazol-1-yl)benzyl)-8-isopropyl-2-((1,2,3,6-tetrahydropyridin-3-yl)oxy)pyrazolo[1,5-a][1,3,5]triazin-4-amine]
